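The compound was tested at five concentrations on cells cultured in 96-well plates, with a 48-hour exposure period. GI50 is the concentration that inhibits growth by half.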 Active and inactive are the calls of the source. No stated cut-off is given here; in the data, active = GI50 up to about 1.1 µM and inactive = higher.
What was measured:
Experiment in all cases: growth of human tumour cells (NCI), 48 h
ACHN = test system: ACHN
COLO 205 = test system: COLO 205
DU-145 = test system: DU-145
HCC 2998 = test system: HCC 2998
HCT-116 = test system: HCT-116
HOP-62 = test system: HOP-62
HT-29 = test system: HT-29
K562 = test system: K562
KM12 = test system: KM12
NCI-H23 = test system: NCI-H23
OVCAR-4 = test system: OVCAR-4
RXF 393 = test system: RXF 393
SF-268 = test system: SF-268
SF-295 = test system: SF-295
SK-OV-3 = test system: SK-OV-3
SN12C = test system: SN12C
SNB-19 = test system: SNB-19
SNB-75 = test system: SNB-75
SW-620 = test system: SW-620
UACC-62 = test system: UACC-62

Row | SMILES | GI50 (ACHN) | GI50 (COLO 205) | GI50 (DU-145) | GI50 (HCC 2998) | GI50 (HCT-116) | GI50 (HOP-62) | GI50 (HT-29) | GI50 (K562) | GI50 (KM12) | GI50 (NCI-H23) | GI50 (OVCAR-4) | GI50 (RXF 393) | GI50 (SF-268) | GI50 (SF-295) | GI50 (SK-OV-3) | GI50 (SN12C) | GI50 (SNB-19) | GI50 (SNB-75) | GI50 (SW-620) | GI50 (UACC-62)
1 | O=C1Nc2ccccc2/C1=N/Nc1ccccc1Cl | 3.58 µM (inactive) | 24.9 µM (inactive) | 70 µM (inactive) | 81.1 µM (inactive) | 23.7 µM (inactive) | 11.1 µM (inactive) | > 100 µM (inactive) | 43.5 µM (inactive) | 63.1 µM (inactive) | 42.8 µM (inactive) | 3.57 µM (inactive) | 34.8 µM (inactive) | 29.8 µM (inactive) | 32.1 µM (inactive) | 16.1 µM (inactive) | 21.7 µM (inactive) | 29.8 µM (inactive) | 22.1 µM (inactive) | > 100 µM (inactive) | 89.3 µM (inactive)
2 | Cc1nn(C(=O)c2ccncc2)c2c1C(c1ccccc1O)SC(=N)N2 (stereo not given) | > 10 µM (inactive) | > 10 µM (inactive) | > 10 µM (inactive) | > 10 µM (inactive) | > 10 µM (inactive) | > 10 µM (inactive) | > 10 µM (inactive) | > 10 µM (inactive) | > 10 µM (inactive) | > 10 µM (inactive) | > 10 µM (inactive) | > 10 µM (inactive) | > 10 µM (inactive) | > 10 µM (inactive) | > 10 µM (inactive) | > 10 µM (inactive) | > 10 µM (inactive) | > 10 µM (inactive) | > 10 µM (inactive) | > 10 µM (inactive)
3 | Cc1cc2nc(C=C(C(F)(F)F)C(F)(F)F)sc2cc1C | 2.99 µM (inactive) | 1.4 µM (inactive) | 3.37 µM (inactive) | 3.18 µM (inactive) | 1.1 µM (active) | 3.05 µM (inactive) | 0.929 µM (active) | 0.0693 µM (active) | 1.7 µM (inactive) | 1.46 µM (inactive) | 2.99 µM (inactive) | 1.16 µM (inactive) | 3.05 µM (inactive) | 3.15 µM (inactive) | 7.62 µM (inactive) | 0.501 µM (active) | 3.44 µM (inactive) | 1.16 µM (inactive) | 0.957 µM (active) | 1.85 µM (inactive)
4 | C/C=C/[P+](c1ccccc1)(c1ccccc1)c1ccccc1 | 4.56 µM (inactive) | 0.101 µM (active) | 1.15 µM (inactive) | 0.24 µM (active) | 0.433 µM (active) | 3.03 µM (inactive) | 0.914 µM (active) | 0.0649 µM (active) | 0.277 µM (active) | 2.06 µM (inactive) | 2.77 µM (inactive) | 6.14 µM (inactive) | 1.54 µM (inactive) | 2.26 µM (inactive) | 1.42 µM (inactive) | 1.79 µM (inactive) | 0.299 µM (active) | 3.48 µM (inactive) | 0.48 µM (active) | 1.71 µM (inactive)
5 | C[C@@H]1C[C@H](O)[C@]2(O)O[C@@H]3C[C@@]4(C=O)[C@@H](CC[C@@H]5[C@@H]4CC[C@]4(C)[C@@H](C6=CC(=O)OC6)CC[C@]54O)C[C@H]3O[C@@H]2O1 [CALOTROPIN] | 0.0188 µM (active) | 0.0726 µM (active) | 0.0134 µM (active) | 0.0593 µM (active) | 0.0193 µM (active) | 0.0244 µM (active) | 0.0425 µM (active) | 0.0365 µM (active) | 0.0809 µM (active) | 0.0188 µM (active) | 0.0179 µM (active) | 0.0176 µM (active) | 0.0406 µM (active) | 0.0372 µM (active) | 0.0351 µM (active) | 0.0202 µM (active) | 0.083 µM (active) | 0.0689 µM (active) | 0.0247 µM (active) | 0.0718 µM (active)

Source: ChEMBL document CHEMBL1201862, “PubChem BioAssay data set” (2004)
